Measured values published in ChEMBL document CHEMBL5506015, “Discovery of a Meisoindigo-Derived PROTAC as the ATM Degrader: Revolutionizing Colorectal Cancer Therapy via Synthetic Lethality with ATR Inhibitors” (J Med Chem, 2024).
pIC50: −log10 of the molar value. Active and inactive are the calls of the source. The calls are words filed in the database; no cut-off is given here.

Legend:
[1] = Cytotoxicity against human HIEC-6 cells assessed as reduction in cell viability incubated for 48 hrs by MTT assay; type: toxicity, cell-based; conditions: HIEC-6 cells
SW-620 [2] = experiment: Cytotoxicity against human SW620 cells assessed as reduction in cell viability incubated for 48 hrs by MTT assay; conditions: SW-620, 48 h
NCI-H358 = experiment: Cytotoxicity against human NCI-H358 cells assessed as reduction in cell viability incubated for 48 hrs by MTT assay; conditions: NCI-H358, 48 h
LoVo = experiment: Cytotoxicity against human LoVo cells assessed as reduction in cell viability incubated for 48 hrs by MTT assay
SW480 = experiment: Cytotoxicity against human SW480 cells assessed as reduction in cell viability incubated for 48 hrs by MTT assay; conditions: SW480, 48 h
K562 = experiment: Cytotoxicity against human K562 cells assessed as reduction in cell viability incubated for 48 hrs by MTT assay; conditions: K562, 48 h
A2780 = experiment: Cytotoxicity against human A2780 cells assessed as reduction in cell viability incubated for 48 hrs by MTT assay; conditions: A2780, 48 h
HCT-116 = experiment: Cytotoxicity against human HCT-116 cells assessed as reduction in cell viability incubated for 48 hrs by MTT assay; conditions: HCT-116, 48 h
RKO = experiment: Cytotoxicity against human RKO cells assessed as reduction in cell viability incubated for 48 hrs by MTT assay
COLO 205 = experiment: Cytotoxicity against human COLO 205 cells assessed as reduction in cell viability incubated for 48 hrs by MTT assay; conditions: COLO 205, 48 h
SW13 = experiment: Cytotoxicity against human SW13 cells assessed as reduction in cell viability incubated for 48 hrs by MTT assay; conditions: SW13, 48 h
SW-620 [3] = experiment: Effect on ATM mRNA level in human SW620 cells at 2.5 to 10 uM incubated for 12 hr by RT-PCR analysis; type: functional, cell-based; conditions: dose 2.5-10 µM
SW-620 [4] = experiment: Downregulation of PROX1 level in human SW620 cells at 1.25 to 10 uM measured after 12 hrs by immunoblot analysis; type: functional, cell-based; conditions: dose 1.25-10 µM
SW-620 [5] = experiment: Downregulation of KDM4B level in human SW620 cells at 1.25 to 10 uM measured after 12 hrs by immunoblot analysis; type: functional, cell-based; conditions: dose 1.25-10 µM
SW-620 [6] = experiment: Antitumor activity against human SW620 cells xenografted in Balb/c nude mouse model assessed as increase in gamma-H2AX at 25 mg/kg/day measured after 14 days by Western blot analysis; type: functional, organism-based; conditions: time 14.0 day
SW-620 [7] = experiment: Antitumor activity against human SW620 cells xenografted in Balb/c nude mouse model assessed as increase in gamma-H2AX level at 25 mg/kg/day measured after 14 days by Western blot analysis; type: functional, organism-based; conditions: time 14.0 day
SW-620 [8] = experiment: Antitumor activity against human SW620 cells xenografted in Balb/c nude mouse model assessed as decrease in cleaved caspase 3 level at 25 mg/kg/day measured after 14 days by Western blot analysis; type: functional, organism-based; conditions: time 14.0 day
SW-620 [9] = experiment: Antitumor activity against human SW620 cells xenografted in Balb/c nude mouse model assessed as increase in cleaved-caspase 3 level at 25 mg/kg/day measured after 14 days by Western blot analysis; type: functional, organism-based; conditions: time 14.0 day
SW-620 [10] = experiment: Antitumor activity against human SW620 cells xenografted in Balb/c nude mouse model assessed as fibrosis at 25 mg/kg/day measured after 14 days by H and E staining based analysis; type: functional, organism-based; conditions: time 14.0 day
SW-620 [11] = experiment: Antitumor activity against human SW620 cells xenografted in Balb/c nude mouse model assessed as decrease in ATM protein level at 25 mg/kg/day measured after 14 days by Western blot analysis; type: functional, organism-based; conditions: time 14.0 day
SW-620 [12] = experiment: Antitumor activity against human SW620 cells xenografted in Balb/c nude mouse model assessed as necrosis at 25 mg/kg/day measured after 14 days by H and E staining based analysis; type: functional, organism-based; conditions: time 14.0 day
SW-620 [13] = experiment: Antitumor activity against human SW620 cells xenografted in Balb/c nude mouse model assessed as decrease in pro-caspase 3 level at 25 mg/kg/day measured after 14 days by Western blot analysis; type: functional, organism-based; conditions: time 14.0 day
SW-620 [14] = experiment: Antitumor activity against human SW620 cells xenografted in Balb/c nude mouse model assessed as reduction in tumor load at 25 mg/kg/day administered for 14 days by vernier caliper based analysis; type: functional, organism-based; conditions: time 14.0 day
SW-620 [15] = experiment: Antitumor activity against human SW620 cells xenografted in Balb/c nude mouse model assessed as inflammatory cell infiltration at 25 mg/kg/day measured after 14 days by H and E staining based analysis; type: functional, organism-based; conditions: time 14.0 day
SW-620 [16] = experiment: Antitumor activity against human SW620 cells xenografted in Balb/c nude mouse model assessed as decrease in BCL2 protein level at 25 mg/kg/day measured after 14 days by Western blot analysis; type: functional, organism-based; conditions: time 14.0 day

Structure (SMILES) | IC50 at 48 h [1] [µM] | pIC50 (SW-620 [2]) | pIC50 (NCI-H358) | pIC50 (LoVo) | pIC50 (SW480) | pIC50 (K562) | pIC50 (A2780) | pIC50 (HCT-116) | pIC50 (RKO) | pIC50 (COLO 205) | pIC50 (SW13) | also measured
CC(C)n1c(=O)n(C)c2cnc3cc(F)c(-c4ccc(OCCCN5CCCCC5)nc4)cc3c21 [AZD-1390] | > 20 | < 4.70 | < 4.70 | < 4.70 | < 4.70 | < 4.70 | < 4.70 | < 4.70 | < 4.70 | < 4.70 | < 4.70 | 
O=c1[nH]cc(F)c(=O)[nH]1 [FLUOROURACIL] | 18.6 | 4.86 | < 4.70 | 5.00 | 4.90 | < 4.70 | 4.89 |  | 5.46 | 5.34 | < 4.70 | 
Cc1ncsc1-c1ccc(CNC(=O)[C@@H]2C[C@@H](O)CN2C(=O)[C@@H](NC(=O)OC(C)(C)C)C(C)(C)C)cc1 | > 20 | < 4.70 | < 4.70 | < 4.70 | < 4.70 | < 4.70 | < 4.70 | < 4.70 | < 4.70 | < 4.70 | < 4.70 | 
CN1C(=O)/C(=C2/C(=O)Nc3ccccc32)c2ccccc21 [MEISOINDIGO] | 12 | 5.04 | < 4.70 | 4.90 | 5.55 | 5.09 | 5.18 | 5.27 | 4.93 | 5.12 | 4.89 | Activity (SW-620 [3]): inactive; Activity (SW-620 [4]): Active; Activity (SW-620 [5]): Active
C[C@@H]1COCCN1c1cc(C2([S@](C)(=N)=O)CC2)nc(-c2cc[nH]c3nccc2-3)n1 |  |  |  |  |  |  |  |  |  |  |  | Activity (SW-620 [6]): Active; Activity (SW-620 [7]): Active; Activity (SW-620 [8]): Active; Activity (SW-620 [9]): Active; Activity (SW-620 [10]): Active; Activity (SW-620 [11]): Active; Activity (SW-620 [12]): Active; Activity (SW-620 [13]): Active; Activity (SW-620 [14]): Active; Activity (SW-620 [15]): Active; Activity (SW-620 [16]): Active
O=C1CCC(N2Cc3c(NCCCCCCn4cc(CCCN5C(=O)/C(=C6/C(=O)Nc7ccccc76)c6ccccc65)nn4)cccc3C2=O)C(=O)N1 (stereo not drawn) | > 20 | 5.11 | < 4.70 | 4.82 | < 4.70 | < 4.70 | 5.13 | < 4.70 | 5.17 | < 4.70 | < 4.70 | 
